This note sets out measurements from ChEMBL document CHEMBL1137070, “Novel galbonolide derivatives as IPC synthase inhibitors: design, synthesis and in vitro antifungal activities” (2004).

Values after ≈ are worked out from the molar mass of the structure shown.

What all share (type): functional
The subject of experiment [1] is Aspergillus fumigatus. As to the kind of experiment: In vitro antifungal activity against Aspergillus fumigatus TIMM1776; activity expressed as minimum inhibitory concentration.
The subject of experiment [2] is Candida albicans. Nature of the experiment: In vitro antifungal activity against Candida albicans ATCC 90028; activity expressed as minimum inhibitory concentration.
The test system of experiment [3] is Cryptococcus neoformans. Nature of the experiment: In vitro antifungal activity against Cryptococcus neoformans ATCC 9011; activity expressed as minimum inhibitory concentration.
The subject of experiment [4] is Cryptococcus neoformans. As to the kind of experiment: In vitro antifungal activity against Cryptococcus neoformans ATCC 9011.
Experiment [5] relates to Saccharomyces cerevisiae. Nature of the experiment: In vitro antifungal activity against Saccharomyces cerevisiae Y9; activity expressed as minimum inhibitory concentration.
Experiment [6] relates to Candida albicans. As to the kind of experiment: In vitro antifungal activity against Candida albicans ATCC 90028.
Experiment [7] has as its system Saccharomyces cerevisiae. As to the kind of experiment: In vitro antifungal activity against Saccharomyces cerevisiae Y9.
The subject of experiment [8] is Aspergillus fumigatus. As to the kind of experiment: In vitro antifungal activity against Aspergillus fumigatus TIMM1776.

As usually defined, the MIC is the least concentration at which growth counts as inhibited. A higher MIC goes with a less susceptible organism. Take `C=C1/C=C(\C)[C@H](CC)OC(=O)[C@H](C)C(=O)[C@@](O)(CO)C/C=C/[C@@H](C)C1`: the MIC in experiment [1], in experiment [2] and in experiment [3] was > 64 µg/mL in each case.

In general, IC80 refers to the concentration needed for an effect of 80%. `C=C1/C=C(\C)[C@H](CC)OC(=O)[C@H](C)C(=O)[C@@](O)(CO)C/C(C)=C/[C@@H](C)C1`: the MIC in experiment [1], in experiment [2], in experiment [3] and in experiment [5] was > 64 µg/mL each time. Further, in experiment [4], it took 32 µg/mL (≈ 87.8 µM) to reach the 80% level (IC80).

`C=C1/C=C(\C)[C@H](CC)OC(=O)[C@H](C)C(=O)[C@@](O)(CO)C/C(OC)=C/[C@@H](C)C1`: the MIC in experiment [1] was > 64 µg/mL; in experiment [2], 4 µg/mL (≈ 10.5 µM); in experiment [3] it was 0.063 µg/mL (≈ 0.166 µM); in experiment [5], 1 µg/mL (≈ 2.63 µM). Further, the IC80 in experiment [6] was 1 µg/mL (≈ 2.63 µM); in experiment [4] it was < 0.031 µg/mL; in experiment [7], 0.5 µg/mL (≈ 1.31 µM).

For the compound `C[C@@H]1[C@H](O)[C@@H](C)/C=C/C=C/C=C/C=C/C=C/C=C/C=C/[C@H](O[C@@H]2O[C@H](C)[C@@H](O)[C@H](N)[C@@H]2O)C[C@@H]2O[C@](O)(C[C@@H](O)C[C@@H](O)[C@H](O)CC[C@@H](O)C[C@@H](O)CC(=O)O[C@H]1C)C[C@H](O)[C@H]2C(=O)O` [AMPHOTERICIN B], the MIC came to 1 µg/mL (≈ 1.08 µM) in experiment [1], 0.25 µg/mL (≈ 0.271 µM) in experiment [2], 0.25 µg/mL (≈ 0.271 µM) in experiment [3] and 0.25 µg/mL (≈ 0.271 µM) in experiment [5].

Regarding `C=C1/C=C(\C)[C@H](CC)OC(=O)[C@H](C)C(=O)[C@@](O)(CO)C/C(SC)=C/[C@@H](C)C1`, the MIC was > 64 µg/mL in experiment [1], 64 µg/mL (≈ 161 µM) in experiment [2], 0.5 µg/mL (≈ 1.26 µM) in experiment [3] and 64 µg/mL (≈ 161 µM) in experiment [5]. Besides, the values for the IC80 in experiment [6], in experiment [4] and in experiment [7] were 16 µg/mL (≈ 40.3 µM), 0.063 µg/mL (≈ 0.159 µM) and 32 µg/mL (≈ 80.7 µM), respectively.

In the case of `C=C1/C=C(\C)[C@H](CC)OC(=O)[C@@H](C)C(=O)[C@@](O)(CO)C/C(OC)=C/[C@@H](C)C1`, the MIC in experiment [1], in experiment [2], in experiment [3] and in experiment [5] was > 64 µg/mL throughout.

As for `OC(Cn1cncn1)(Cn1cncn1)c1ccc(F)cc1F` [FLUCONAZOLE], the 80% effect concentration (IC80) in experiment [8] was > 64 µg/mL; in experiment [6] it was 0.5 µg/mL (≈ 1.63 µM); in experiment [4] it was 8 µg/mL (≈ 26.1 µM); in experiment [7] it was 8 µg/mL (≈ 26.1 µM).

Turning to `C=C1/C=C(\C)[C@H](CC)OC(=O)[C@H](C)C(=O)[C@@](O)(CO)C/C(Cl)=C/[C@@H](C)C1`, the MIC in experiment [1] is > 64 µg/mL; in experiment [2], > 64 µg/mL; in experiment [3], 16 µg/mL (≈ 41.6 µM). Moreover, the 80% effect concentration (IC80) in experiment [6] amounted to 64 µg/mL (≈ 166 µM); in experiment [4], 0.15 µg/mL (≈ 0.39 µM).

As for `C=C1/C=C(\C)[C@H](CC)OC(=O)[C@H](C)C(=O)[C@@](O)(CO)C/C(OCC(F)(F)F)=C/[C@@H](C)C1`, the results for the MIC in experiment [1], in experiment [2] and in experiment [3] were 64 µg/mL (≈ 143 µM), > 64 µg/mL and 32 µg/mL (≈ 71.4 µM), respectively.

With `C=C1/C=C(\C)[C@H](CC)OC(=O)[C@H](C)C(=O)[C@@](O)(CO)[C@@H](OC)/C=C/[C@@H](C)C1`, the MIC in experiment [1], in experiment [2] and in experiment [3] was > 64 µg/mL each time.

Take `C=C1/C=C(\C)[C@H](CC)OC(=O)[C@H](C)C(=O)[C@@](O)(CO)[C@H](OC)/C=C/[C@@H](C)C1`: the MIC in experiment [1], in experiment [2] and in experiment [3] was > 64 µg/mL each time.
